These results are taken from patent publication US5677292A, “Derivatives of estra 1,3,5(10)triene-17-one,3-amino compounds and their use” (Duquesne University of the Holy Ghost, priority 1996, dated 1997).

Entries after “also recorded” stand apart in the source; their conditions may differ.

The subject of experiment [1] is estrone-induced uterine weight gain in ovariectomized rats. Nature of the experiment: Ovariectomized rat uterine weight gain assay: anti-estrogenicity (block of estrone-induced uterine weight gain). Type of experiment: in vivo.
Experimental: Estrogenicity and antiestrogenicity were assessed using an ovariectomized rat uterine weight gain assay. […] Ovariectomized rats were maintained two weeks prior to treatment to allow their uteri to regress to basal size. Treatments were given by intraperitoneal injection in a 1% gelatin, 0.9% NaCl solution at a volume of 0.5 ml. Steroids were dissolved in ethanol to 1 mg/ml then further diluted into the injection solution to the desired concentration. All treatments were continued for seven days. At the termination of the experiments, animals were sacrificed by cervical dislocation under ether anesthesia. Body weight was taken, then uteri were excised, stripped of fat, and weighed to the nearest 0.1 mg. In vivo, estradiol and estrone can induce uterine weight gain in female ovariectomized rats.
(§1) Steroids were administered at 25 μg/day. For determination of antiestrogenicity, three treatment groups were established: vehicle control, estrone, and estrone E1 NH2.
Antiestrogenicity was assessed as the ability of the compound to block estrone-induced uterine weight gain in ovariectomized rats. […] Control animals received vehicle only (0.9% NaCl, 1% gelatin, 500 μl. i.p. injection).
Experiment [2] relates to uterine weight of ovariectomized rats. Put plainly: Ovariectomized rat uterine weight gain assay: estrogenicity. As to conditions: for Estrogenicity: increase in uterine weight of ovariectomized rats compared with control / Uterine weight compared with other groups (control and E1 -NH2): 25 μg/day, i.p., seven days; for Estrogenicity: increase in uterine weight of ovariectomized rats compared with control: n=5; for Uterine weight compared with other groups (control and E1 -NH2): Student-Newman-Keuls test.
Experimental: Estrogenicity and antiestrogenicity were assessed using an ovariectomized rat uterine weight gain assay. […] Ovariectomized rats were maintained two weeks prior to treatment to allow their uteri to regress to basal size. Treatments were given by intraperitoneal injection in a 1% gelatin, 0.9% NaCl solution at a volume of 0.5 ml. Steroids were dissolved in ethanol to 1 mg/ml then further diluted into the injection solution to the desired concentration. All treatments were continued for seven days. At the termination of the experiments, animals were sacrificed by cervical dislocation under ether anesthesia. Body weight was taken, then uteri were excised, stripped of fat, and weighed to the nearest 0.1 mg.
as §1
A rat uterine weight gain assay was used to determine if E1 -NH2 had estrogenic or anti-estrogenic activity. […] Data are means ±SEM, n=5 for all groups. Control animals received vehicle only (0.9% NaCl, 1% gelatin, 500 μl,i.p. injection).

The target in experiment [3] is T1, rat uterine estrogen receptor (Rattus norvegicus, UniProt P06211).
T1 sequence (P06211 1-600): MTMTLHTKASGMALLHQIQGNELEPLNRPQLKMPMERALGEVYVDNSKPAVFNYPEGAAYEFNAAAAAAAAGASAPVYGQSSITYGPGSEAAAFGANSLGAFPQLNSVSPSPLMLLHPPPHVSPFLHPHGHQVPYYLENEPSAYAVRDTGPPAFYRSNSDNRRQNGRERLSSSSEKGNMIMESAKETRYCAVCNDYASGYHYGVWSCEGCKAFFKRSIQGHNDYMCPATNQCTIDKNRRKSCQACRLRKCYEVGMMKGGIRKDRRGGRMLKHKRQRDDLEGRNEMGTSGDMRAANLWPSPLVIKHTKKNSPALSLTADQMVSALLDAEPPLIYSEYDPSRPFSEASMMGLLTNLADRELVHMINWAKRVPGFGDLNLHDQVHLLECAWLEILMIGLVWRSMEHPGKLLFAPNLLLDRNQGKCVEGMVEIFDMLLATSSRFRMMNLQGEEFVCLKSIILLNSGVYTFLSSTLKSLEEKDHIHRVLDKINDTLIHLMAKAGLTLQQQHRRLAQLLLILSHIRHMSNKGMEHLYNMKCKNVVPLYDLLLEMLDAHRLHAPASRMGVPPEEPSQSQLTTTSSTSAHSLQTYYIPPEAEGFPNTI
Nature of the experiment: Estrogen receptor binding, displacement of 3H-estradiol in rat uterine cytosol. Here is the method:
Specific binding was calculated as total binding minus nonspecific binding.

Experiment [4] concerns nitrosomethyl urea-induced tumor cells in castrated rats. As to conditions: cited from earlier work.

On to `C[C@]12CC[C@@H]3c4ccc(N)cc4CC[C@H]3[C@@H]1CCC2=O` [E1 -NH2, estra-1,3,5(10)-triene-17-one, 3-amine], for which, in experiment [1] (E1 -NH2 100 μg/day with estrone 2 μg/day, i.p., seven days, n=5), the “Anti-estrogenicity: block of estrone-induced uterine growth” value is on record as “did not block estrone-induced uterine growth”. In experiment [1] (FIGS. 4 and 5), the “Anti-estrogenicity (conclusion)” value is on record as “neither estrogenic nor anti-estrogenic”. Besides, the “Estrogenicity: increase in uterine weight of ovariectomized rats compared with control” value in experiment [2] is listed as “did not cause a significant increase in uterine weight”. Moreover, the “Estrogenicity (conclusion)” value in experiment [2] (FIGS. 4 and 5) is “neither estrogenic nor anti-estrogenic”. Also, the “Competition for / interaction with estrogen receptor” value in experiment [3] (rat uterine cytosol, 0.01, 0.1 and 1 μM competitor) was “did not compete for estrogen receptor at the same level as estrone; also recorded: does not interact to any great extent with an estrogen receptor”. In addition, the inhibition at 1 µM in experiment [3] (read-out: Displacement of specific 3H-estradiol binding) was 60%.
On to `C[C@]12CC[C@@H]3c4ccc(O)cc4CC[C@H]3[C@@H]1CC[C@@H]2O` [estradiol, estradiol-17β], for which, in experiment [2], the “Estrogenicity: increase in uterine weight of ovariectomized rats compared with control” value was “significantly increased uterine weight above control levels”; the “Uterine weight compared with other groups (control and E1 -NH2)” value is given as “significantly (p≤0.05) higher than other groups”.
For `C[C@]12CC[C@@H]3c4ccc(O)cc4CC[C@H]3[C@@H]1CCC2=O` [estrone], in that order: “significantly increased uterine weight above control levels” and “significantly (p≤0.05) higher than other groups”.
In the case of estrone sulfate, the “Stimulation of tumor cell growth” value in experiment [4] is reported as “stimulate growth of nitrosomethyl urea-induced tumor cells in castrated rats”.
